Results on four compounds are retold here after publication PMC8277517, “Anticolon Cancer Properties of Pyrazole Derivatives Acting through Xanthine Oxidase Inhibition” (Journal of Oncology, 2021).

For test [1], the system named is MCF-7, HepG2, and HCT-116 cell lines. The arrangement: method as in doi:10.2174/1570178617666200320104923. The note with it: read-out: IC50 inhibition of cell proliferation (range over cell lines); cited from earlier work.
For test [2], the system named is HCT-116 colorectal carcinoma cell line. Further details: method as in doi:10.2174/1570178617666200320104923. The note with it: Figure 1 design strategy, earlier lead; cited from earlier work.
Test [3] deals with MCF-7 breast adenocarcinoma cell line. Further details: method as in doi:10.2174/1570178617666200320104923. The note with it: Figure 1 design strategy, earlier lead; cited from earlier work.
For test [4] the test system is unchanged. Description: Sulforhodamine B (SRB) cytotoxicity assay, MCF-7. Format: cell-based. The conditions noted are these: Homo sapiens, MCF7, 72 h. The procedure: (§1) Human hepatocellular carcinoma cell line (HepG-2, ATCC HB-8065), colorectal adenocarcinoma cell line (HCT-116, ATCC CCL-247), and breast adenocarcinoma cell line (MCF-7, ATCC HTB-22) were obtained from the American type culture collection (ATCC). Cells were maintained in RPMI-1640 supplemented with (100 μg/ml) penicillin (100 units/ml) and heat-inactivated fetal bovine serum (10% v/v) in a humidified, 5% (v/v) CO2 atmosphere at 37°C [13].
(§2) The cytotoxicity of the different compounds was tested against human tumor cells using the sulforhodamine B assay (SRB). Healthy growing cells were cultured in a 96-well tissue culture plate (3000 cells/well) for 24 hours to allow attachment of the cells to the plate before treatment with the tested compounds. […] Triplicate wells were incubated with different concentrations for 72 h and subsequently fixed with TCA (10% w/v) for 1 h at 4°C. […] After drying overnight, the SRB-stained cells were dissolved with tris-HCl and the color intensity was measured in a microplate reader at 540 nm.
(§3) The SRB assay is the “gold-standard” assay and is extensively used in the high-throughput screening program at the National Cancer Institute (NCI), USA. The SRB uses an aminoxanthene dye, which readily stains the cells through binding with the basic amino acids of cellular proteins. […]
Background: In SRB staining, fixed cells bind dye roughly in proportion to their protein.

Test [5] has as its system HepG2 hepatocellular carcinoma cell line. Description: Sulforhodamine B (SRB) cytotoxicity assay, HepG2. The format is cell-based. The conditions noted are these: Homo sapiens, 72 h. The procedure: as §1, §2, §3
The test system of test [6] is HCT-116 colorectal carcinoma cell line. Description: Sulforhodamine B (SRB) cytotoxicity assay, HCT-116. The conditions noted are these: Homo sapiens, 72 h. Format: cell-based. How it is done: as §1, §2, §3

Molecules are shown by their SMILES. Read-outs that look alike come from different tables or passages of the source.

Consider `CC1=NN(C(=O)c2ccncc2)C(=O)C1=NNc1ccc([N+](=O)[O-])cc1` [1-isonicotinoyl-3-methyl-4-[2-(4-nitrophenyl)hydrazono]-2-pyrazolin-5-one], for which the IC50 in test [1] was 0.2 to 3.4 µM.

Regarding `COc1ccc(/N=N/c2c(C)nn(C(=O)c3ccncc3)c2C)cc1` [Aryldiazenyl pyrazoles (ADP)], the IC50 in test [2] is 61.3 µM.

For the compound `CC1=NN(C(=O)c2ccncc2)C(=O)/C1=N/Nc1ccc([N+](=O)[O-])cc1` [Arylhydrazono pyrazoles (AHP)], in test [3], the IC50 was 0.2 µM.

Regarding `COc1cccc2c1C(=O)c1c(O)c3c(c(O)c1C2=O)C[C@@](O)(C(=O)CO)C[C@@H]3O[C@H]1C[C@H](N)[C@H](O)[C@H](C)O1` [Doxorubicin], the IC50 is 4.7 ± 0.08 µM in test [4], 3.9 ± 0.06 µM in test [5] and 4.4 ± 0.04 µM in test [6].
